Laboratory results published in patent US20250179052A1, “PYRIMIDINYL-OXY-QUINOLINE BASED HERBICIDAL COMPOUNDS” (SYNGENTA CROP PROTECTION AG, priority 2022, published 2025).

Experiments:
Details in all cases: 250 g/ha, evaluated after 13 days, five-point scale
[1] = system: Echinochloa crus-galli (ECHCG); assay: Pre-emergence herbicidal glasshouse test; type: in vivo
AMAPA [2] = assay: Pre-emergence herbicidal glasshouse test; type: in vivo, Amaranthus tuberculatus
[3] = system: Ipomoea hederacea (IPOHE); assay: Pre-emergence herbicidal glasshouse test; type: in vivo
[4] = system: Amaranthus retoflexus (AMARE); assay: Pre-emergence herbicidal glasshouse test; type: in vivo
AMAPA [5] = assay: Post-emergence herbicidal glasshouse test; type: in vivo, Amaranthus tuberculatus
[6] = system: Echinochloa crus-galli (ECHCG); assay: Post-emergence herbicidal glasshouse test; type: in vivo
Setaria faberi (SETFA) [7] = assay: Pre-emergence herbicidal glasshouse test; type: in vivo
[8] = system: Ipomoea hederacea (IPOHE); assay: Post-emergence herbicidal glasshouse test; type: in vivo
Setaria faberi (SETFA) [9] = assay: Post-emergence herbicidal glasshouse test; type: in vivo
[10] = system: Amaranthus retoflexus (AMARE); assay: Post-emergence herbicidal glasshouse test; type: in vivo

Compound	percentage damage caused to the plant, ECHCG [1]	percentage damage caused to the plant, AMAPA (AMAPA [2])	percentage damage caused to the plant, IPOHE [3]	percentage damage caused to the plant, AMARE [4]	percentage damage caused to the plant, AMAPA (AMAPA [5])	percentage damage caused to the plant, ECHCG [6]	percentage damage caused to the plant, SETFA (Setaria faberi (SETFA) [7])	percentage damage caused to the plant, IPOHE [8]	percentage damage caused to the plant, SETFA (Setaria faberi (SETFA) [9])	percentage damage caused to the plant, AMARE [10]
Cc1cc(C(F)(F)F)nc2cccc(Oc3ncc(Cl)cn3)c12 [Compound 1.021]	1 (1=0-20%)	1 (1=0-20%)	1 (1=0-20%)	1 (1=0-20%)	2 (2=21-40%)	1 (1=0-20%)	1 (1=0-20%)	2 (2=21-40%)	1 (1=0-20%)	3 (3=41-60%)
Clc1cnc(Oc2cccc3ccncc23)nc1 [Compound 1.022]	1 (1=0-20%)	1 (1=0-20%)	1 (1=0-20%)	1 (1=0-20%)	2 (2=21-40%)	1 (1=0-20%)	1 (1=0-20%)	1 (1=0-20%)	1 (1=0-20%)	1 (1=0-20%)
Cc1cnc(Oc2cccc3nc(C(F)(F)F)ccc23)nc1 [Compound 1.040]	5 (5=81-100%)	5 (5=81-100%)	5 (5=81-100%)	5 (5=81-100%)	4 (4=61-80%)	4 (4=61-80%)	5 (5=81-100%)	5 (5=81-100%)	4 (4=61-80%)	4 (4=61-80%)
FC(F)(F)c1ccc2c(Oc3ncc(Br)cn3)cccc2n1 [Compound 1.041]	3 (3=41-60%)	5 (5=81-100%)	2 (2=21-40%)	5 (5=81-100%)	5 (5=81-100%)	2 (2=21-40%)	4 (4=61-80%)	3 (3=41-60%)	4 (4=61-80%)	5 (5=81-100%)
FC(F)(Cl)c1ncc2c(Oc3ncc(Cl)cn3)ccc(Cl)c2n1 [Compound 1.044]	2 (2=21-40%)	5 (5=81-100%)	1 (1=0-20%)	3 (3=41-60%)	3 (3=41-60%)	1 (1=0-20%)	5 (5=81-100%)	2 (2=21-40%)	3 (3=41-60%)	3 (3=41-60%)
Cc1ccc(Oc2ncc(Br)cn2)c2cnc(C(F)(F)Cl)nc12 [Compound 1.047]	1 (1=0-20%)	2 (2=21-40%)	1 (1=0-20%)	2 (2=21-40%)	2 (2=21-40%)	1 (1=0-20%)	1 (1=0-20%)	2 (2=21-40%)	1 (1=0-20%)	2 (2=21-40%)
CCOc1ncc2c(Oc3ncc(Cl)cn3)cccc2n1 [Compound 1.063, 5-(5-chloropyrimidin-2-yl)oxy-2-ethoxy-quinazoline]	5 (5=81-100%)	5 (5=81-100%)	5 (5=81-100%)	5 (5=81-100%)	5 (5=81-100%)	5 (5=81-100%)	4 (4=61-80%)	5 (5=81-100%)	4 (4=61-80%)	5 (5=81-100%)
Cc1nc(C(F)(F)F)nc2c(C#N)ccc(Oc3ncc(Cl)cn3)c12 [Compound 1.064]	1 (1=0-20%)	1 (1=0-20%)	1 (1=0-20%)	1 (1=0-20%)	1 (1=0-20%)	1 (1=0-20%)	1 (1=0-20%)	1 (1=0-20%)	1 (1=0-20%)	1 (1=0-20%)
Cc1ccc(Oc2ncc(Cl)cn2)c2cnc(C(F)(F)F)nc12 [Compound 1.068]	3 (3=41-60%)	5 (5=81-100%)	2 (2=21-40%)	5 (5=81-100%)	2 (2=21-40%)	1 (1=0-20%)	3 (3=41-60%)	2 (2=21-40%)	1 (1=0-20%)	3 (3=41-60%)
Cc1nc(C(F)(F)Cl)nc2cccc(Oc3ncc(Cl)cn3)c12 [Compound 1.069]	2 (2=21-40%)	5 (5=81-100%)	1 (1=0-20%)	5 (5=81-100%)	3 (3=41-60%)	2 (2=21-40%)	5 (5=81-100%)	2 (2=21-40%)	2 (2=21-40%)	3 (3=41-60%)
Fc1cnc(Oc2cccc3nc(C(F)(F)F)ncc23)nc1 [Compound 1.070]	5 (5=81-100%)	5 (5=81-100%)	5 (5=81-100%)	5 (5=81-100%)	4 (4=61-80%)	4 (4=61-80%)	5 (5=81-100%)	4 (4=61-80%)	4 (4=61-80%)	4 (4=61-80%)
FC(F)(F)c1ncc2c(Oc3ncc(Cl)cn3)ccc(Br)c2n1 [Compound 1.071]	3 (3=41-60%)	5 (5=81-100%)	1 (1=0-20%)	3 (3=41-60%)	2 (2=21-40%)	1 (1=0-20%)	4 (4=61-80%)	2 (2=21-40%)	1 (1=0-20%)	3 (3=41-60%)
Cc1nc(C(F)(F)F)nc2c(Br)ccc(Oc3ncc(Cl)cn3)c12 [Compound 1.072]	1 (1=0-20%)	2 (2=21-40%)	1 (1=0-20%)	1 (1=0-20%)	1 (1=0-20%)	1 (1=0-20%)	1 (1=0-20%)	1 (1=0-20%)	1 (1=0-20%)	1 (1=0-20%)
